Source: patent US20020137929A1, “1 - (3-heterocyclylphenyl) isothiourea, -isourea, -guanidine and -amidine herbicidal agents” (Intellectual Property Department, BASF Aktiengesellschaft, priority 1998, published 2002)

How the values were obtained:
GLXMA (Soybean) [1] = experiment: Postemergence herbicidal evaluation; assay type: in vivo, Glycine max
Protocol: In the tests, seedling plants are grown in jiffy flats for about two weeks. The test compounds are dispersed in 50/50 acetone/water mixtures containing 0.5% TWEEN®20, a polyoxyethylene sorbitan monolaurate surfactant of Atlas Chemical Industries, in sufficient quantities to provide the equivalent of about 0.0156 kg to 0.500 kg per hectare of active compound when applied to the plants through a spray nozzle operating at 40 psi for a predetermined time. After spraying, the plants are placed on greenhouse benches and are cared for in accordance with conventional greenhouse procedures. From four to five weeks after treatment, the seedling plants are examined and rated according to the rating system set forth below. Where more than one test is involved for a given compound, the data are averaged.
Plant species employed in these evaluations are reported by header abbreviation, common name and scientific name.
(§1) Results of herbicide evaluation are expressed on a rating scale (0-9). The scale is based upon a visual observation of plant stand, vigor, malformation, size, chlorosis and overall plant appearance as compared with a control.

GLXMA (Soybean) [2] = experiment: Preemergence herbicidal evaluation; assay type: in vivo, Glycine max; conditions: rated 4-5 weeks after treatment
Source text: as §1
The preemergence herbicidal activity of the test compounds of the present invention is exemplified by the following tests in which the seeds of a variety of monocotyledonous and dicotyledonous plants are separately mixed with potting soil and planted on top of approximately one inch of soil in separate pint cups. After planting, the cups are sprayed with the selected aqueous acetone solution containing test compound in sufficient quantity to provide the equivalent of about 0.0156 to 0.500 kg per hectare of test compound per cup. The treated cups are then placed on greenhouse benches, watered and cared for in accordance with conventional greenhouse procedures. From four to five weeks after treatment, the tests are terminated and each cup is examined and rated according to the rating system provided in Example 37.
The compounds evaluated are reported by compound number given in Example 37.

## CN1C(=O)C(F)SC1=Nc1cc(N2C(=O)C3=C(CCCC3)C2=O)c(F)cc1Cl (stereo not shown) [Compound 5, N-{4-chloro-2-fluoro-5-[(5-fluoro-3-methyl-4-oxo-2-thiazolidinylidene)amino]phenyl}-1-cyclohexene-1,2-dicarboximide]
GLXMA (Soybean) [1]; rate 0.0157 kg/ha
  GLXMA herbicidal rating: 3.0
GLXMA (Soybean) [1]; rate 0.0313 kg/ha
  GLXMA herbicidal rating: 3.0
GLXMA (Soybean) [1]; rate 0.0625 kg/ha
  GLXMA herbicidal rating: 3.0
GLXMA (Soybean) [1]; rate 0.1250 kg/ha
  GLXMA herbicidal rating: 4.0
GLXMA (Soybean) [1]; rate 0.2500 kg/ha
  GLXMA herbicidal rating: 4.0
GLXMA (Soybean) [1]; rate 0.5000 kg/ha
  GLXMA herbicidal rating: 4.5
GLXMA (Soybean) [2]; rate 0.0625 kg/ha
  GLXMA preemergence herbicidal rating: 1.0
GLXMA (Soybean) [2]; rate 0.1250 kg/ha
  GLXMA preemergence herbicidal rating: 1.0
GLXMA (Soybean) [2]; rate 0.2500 kg/ha
  GLXMA preemergence herbicidal rating: 2.0
GLXMA (Soybean) [2]; rate 0.5000 kg/ha
  GLXMA preemergence herbicidal rating: 2.0
